The record followed here is ChEMBL document CHEMBL1143496, “Privileged structure based ligands for melanocortin receptors--substituted benzylic piperazine derivatives” (Bioorg Med Chem Lett, 2005).

Melanocortin receptor 4, sequence (P32245 whole entry): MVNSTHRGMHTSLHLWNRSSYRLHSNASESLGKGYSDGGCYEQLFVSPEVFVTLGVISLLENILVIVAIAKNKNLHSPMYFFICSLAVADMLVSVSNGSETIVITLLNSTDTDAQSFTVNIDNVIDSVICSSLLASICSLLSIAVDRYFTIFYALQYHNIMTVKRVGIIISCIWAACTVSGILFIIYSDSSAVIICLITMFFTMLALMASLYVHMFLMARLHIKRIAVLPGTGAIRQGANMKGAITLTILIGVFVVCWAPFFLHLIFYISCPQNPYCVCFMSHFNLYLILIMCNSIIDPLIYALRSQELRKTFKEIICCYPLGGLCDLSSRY

This assay concerns the target Melanocortin receptor 4 (Homo sapiens, UniProt P32245). Description: Inhibition of [125I]-NDP MSH binding to human Melanocortin 4 receptor.
Turning to `CCN(CC)Cc1ccccc1N1CCN(C(=O)[C@@H](Cc2ccc(Cl)cc2)NC(=O)[C@H]2Cc3ccccc3CN2)CC1`, the Ki (as a rule, a measure of affinity in units of concentration, obtained from inhibition or displacement) was found to be 14 nM. This counts as double-digit nanomolar.

Consider `CCN(CC)C[C@@H](c1ccccc1F)N1CCN(C)CC1`, for which the affinity corresponds to a Ki of 111 nM.

As to `CCN(CC)CC(CCCc1ccccc1)N1CCN(C)CC1` (configuration not stated), affinity was put at a Ki of 110 nM. The Ki values of the last two compounds are within 1.5-fold of each other.

`CCN(CC(c1ccccc1F)N1CCN(C)CC1)C(C)=O` (configuration not stated): the affinity corresponds to a Ki of 106 nM.

Turning to `CCN(CC)CC(c1ccc(F)cc1F)N1CCN(C)CC1` (configuration not stated), the Ki stood at 100 nM. In the case of `CCN(CC(c1ccccc1F)N1CCN(C)CC1)S(C)(=O)=O` (configuration not stated), affinity was put at a Ki of 157 nM. Consider `CCN(CC)CC(c1ccccc1)N1CCN(C)CC1` (configuration not stated), for which the inhibition constant (Ki) was 90 nM. Regarding `CCN(CC)CC(c1ccccc1F)N1CCN(C)CC1` (configuration not stated), the Ki was found to be 20 nM.

In the case of `CCN(CC)C[C@@H](c1ccccc1)N1CCN(C)CC1`, the Ki stood at 50 nM.

Turning to `CCN(CC)C[C@H](c1ccccc1)N1CCN(C)CC1`, the affinity, expressed as Ki, was 190 nM.

`CN1CCN(C(CNS(C)(=O)=O)c2ccccc2F)CC1` (configuration not stated) yielded a Ki of 472 nM.

`CCN(CC)CC(CCc1ccccc1)N1CCN(C)CC1` (configuration not stated) returned a Ki of 130 nM. This Ki lies about 3.6-fold lower than the previous one. The value for `CCN(CC)CC(c1ccc(C(F)(F)F)cc1)N1CCN(C)CC1` (configuration not stated) was 200 nM. Regarding `CCN(CC)CC(c1c(F)cccc1F)N1CCN(C)CC1` (configuration not stated), the affinity, expressed as Ki, was 150 nM. The Ki values of the last two compounds are within 1.5-fold of each other.

`CC(c1ccccc1)N1CCN(C)CC1` (configuration not stated) showed an inhibition constant (Ki) of 700 nM. `CCN(CC)CC(c1ccccc1C(F)(F)F)N1CCN(C)CC1` (configuration not stated) returned an inhibition constant Ki of 40 nM. Take `CN1CCN(Cc2ccccc2)CC1`: the inhibitory constant (Ki) came out at 2000 nM. Against the preceding compound, the Ki is about 50-fold higher. `CCN(CC(c1ccccc1F)N1CCN(C)CC1)C(=O)OC` (configuration not stated) came in with a Ki of 261 nM. This Ki is about 7.7-fold lower than that of the compound before.

Regarding `CCN(CC)CC(c1ccccc1OC)N1CCN(C)CC1` (configuration not stated), the inhibitory constant (Ki) worked out at 190 nM. Regarding `CCN(CC)CC(c1cccc(C(F)(F)F)c1)N1CCN(C)CC1` (configuration not stated), the Ki stood at 150 nM. The Ki values of the last two compounds are within 1.5-fold of each other. `CCN(CC)CC(c1ccccc1Cl)N1CCN(C)CC1` (configuration not stated): affinity was put at a Ki of 70 nM. Consider `CCN(CC)CC(c1ccccc1C)N1CCN(C)CC1` (configuration not stated), for which the affinity corresponds to a Ki of 70 nM.

`CC(=O)NCC(c1ccccc1F)N1CCN(C)CC1` (configuration not stated) registered a Ki of 467 nM. In the case of `COC(=O)NCC(c1ccccc1F)N1CCN(C)CC1` (configuration not stated) it was 483 nM.

`CCN(CC)C(=O)C(c1ccccc1F)N1CCN(C)CC1` (configuration not stated) came in with a Ki of 125 nM. As to `CCN(CC)C[C@H](c1ccccc1F)N1CCN(C)CC1`, the Ki was found to be 14 nM. `CCN(CC)CC(Cc1ccccc1)N1CCN(C)CC1` (configuration not stated): the inhibition constant (Ki) worked out at 40 nM.
